Like-named read-outs stand apart in the source and are kept apart here.

The test system of data set [1] is myopia progression. As to conditions: higher doses; cited from earlier work.
Data set [2] deals with T1, M1 muscarinic receptor (Homo sapiens, UniProt P11229).
T1 sequence (P11229 1-460): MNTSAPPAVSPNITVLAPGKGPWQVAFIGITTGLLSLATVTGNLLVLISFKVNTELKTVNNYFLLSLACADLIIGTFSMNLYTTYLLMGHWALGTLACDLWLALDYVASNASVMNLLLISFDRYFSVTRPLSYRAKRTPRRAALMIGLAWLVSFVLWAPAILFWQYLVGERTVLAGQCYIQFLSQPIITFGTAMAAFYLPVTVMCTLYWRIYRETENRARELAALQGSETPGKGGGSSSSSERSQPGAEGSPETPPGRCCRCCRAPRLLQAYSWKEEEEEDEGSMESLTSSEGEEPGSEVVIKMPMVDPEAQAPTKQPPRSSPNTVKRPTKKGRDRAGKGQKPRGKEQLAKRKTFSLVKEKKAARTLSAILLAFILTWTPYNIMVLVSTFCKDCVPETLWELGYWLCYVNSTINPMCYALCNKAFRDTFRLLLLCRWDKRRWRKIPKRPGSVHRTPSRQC
The data set is described as follows: Muscarinic receptor radioligand displacement binding, M1. In general terms: In a radioligand displacement assay an active substance lowers the binding of a labelled ligand.

The conditions of data set [3]: 5 min, pH 7.4.
Data set [4] relates to form deprivation-induced myopia (FDM). The data set is described as follows: Form deprivation-induced myopia (FDM) chick model. The following applies: FIG. 1 Panel A; for efficacy in FDM chick model: intravitreal injection day 2 and day 4, readout day 5; for change in refractive error (goggled eye value minus ungoggled eye value): with respect to 5% v/v ethanol solution. The format is in vivo.

Data set [5] deals with T2, M4 muscarinic receptor (Homo sapiens, UniProt P08173).
T2 sequence (P08173 1-479): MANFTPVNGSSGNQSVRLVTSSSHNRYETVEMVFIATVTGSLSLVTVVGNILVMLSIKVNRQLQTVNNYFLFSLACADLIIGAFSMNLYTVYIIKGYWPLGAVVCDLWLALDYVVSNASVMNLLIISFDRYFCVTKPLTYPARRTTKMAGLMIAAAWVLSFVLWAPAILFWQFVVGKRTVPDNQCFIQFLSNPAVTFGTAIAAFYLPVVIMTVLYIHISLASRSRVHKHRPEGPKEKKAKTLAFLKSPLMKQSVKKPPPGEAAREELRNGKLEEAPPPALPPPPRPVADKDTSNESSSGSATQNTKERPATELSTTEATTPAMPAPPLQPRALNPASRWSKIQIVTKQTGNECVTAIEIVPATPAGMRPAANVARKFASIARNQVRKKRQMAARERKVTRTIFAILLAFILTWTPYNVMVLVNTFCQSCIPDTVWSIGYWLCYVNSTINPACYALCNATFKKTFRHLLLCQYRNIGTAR
The data set is described as follows: Muscarinic receptor radioligand displacement binding, M4.

The target of data set [6] is T3, M2 muscarinic receptor (Homo sapiens, UniProt P08172).
T3 sequence (P08172 1-466): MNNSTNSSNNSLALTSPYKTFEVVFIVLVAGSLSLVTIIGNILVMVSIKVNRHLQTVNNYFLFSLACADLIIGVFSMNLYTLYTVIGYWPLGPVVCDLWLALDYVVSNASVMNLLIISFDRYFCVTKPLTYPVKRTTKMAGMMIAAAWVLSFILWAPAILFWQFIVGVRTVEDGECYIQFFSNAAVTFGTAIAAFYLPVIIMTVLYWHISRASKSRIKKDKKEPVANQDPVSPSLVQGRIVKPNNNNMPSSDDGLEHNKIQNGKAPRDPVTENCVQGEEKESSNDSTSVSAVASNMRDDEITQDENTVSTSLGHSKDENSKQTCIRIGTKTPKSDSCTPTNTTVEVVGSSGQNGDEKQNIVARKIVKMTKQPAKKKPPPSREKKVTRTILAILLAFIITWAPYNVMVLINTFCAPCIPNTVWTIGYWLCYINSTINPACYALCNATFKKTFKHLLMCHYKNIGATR
The data set is described as follows: Muscarinic receptor radioligand displacement binding, M2.

In data set [7] the target is M3 muscarinic receptor (Homo sapiens, UniProt P20309). The data set is described as follows: Muscarinic receptor radioligand displacement binding, M3.
Chain of M3 muscarinic receptor (P20309 whole entry): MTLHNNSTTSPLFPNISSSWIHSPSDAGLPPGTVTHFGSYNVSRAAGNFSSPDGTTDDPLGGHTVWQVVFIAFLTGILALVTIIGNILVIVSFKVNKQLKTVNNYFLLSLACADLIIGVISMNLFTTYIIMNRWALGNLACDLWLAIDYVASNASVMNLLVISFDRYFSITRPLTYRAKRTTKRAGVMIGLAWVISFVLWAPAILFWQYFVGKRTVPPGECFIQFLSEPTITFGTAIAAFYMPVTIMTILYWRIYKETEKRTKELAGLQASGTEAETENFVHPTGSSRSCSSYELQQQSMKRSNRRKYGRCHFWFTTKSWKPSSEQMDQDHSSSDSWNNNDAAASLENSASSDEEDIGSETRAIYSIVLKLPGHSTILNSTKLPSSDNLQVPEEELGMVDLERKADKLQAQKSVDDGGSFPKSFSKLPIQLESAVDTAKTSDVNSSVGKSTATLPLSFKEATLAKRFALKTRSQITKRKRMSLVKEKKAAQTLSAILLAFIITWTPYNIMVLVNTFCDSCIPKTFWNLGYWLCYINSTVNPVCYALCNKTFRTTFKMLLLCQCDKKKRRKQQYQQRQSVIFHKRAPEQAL
Data set [8] addresses T4, M5 muscarinic receptor (Homo sapiens, UniProt P08912).
T4 sequence (P08912 1-532): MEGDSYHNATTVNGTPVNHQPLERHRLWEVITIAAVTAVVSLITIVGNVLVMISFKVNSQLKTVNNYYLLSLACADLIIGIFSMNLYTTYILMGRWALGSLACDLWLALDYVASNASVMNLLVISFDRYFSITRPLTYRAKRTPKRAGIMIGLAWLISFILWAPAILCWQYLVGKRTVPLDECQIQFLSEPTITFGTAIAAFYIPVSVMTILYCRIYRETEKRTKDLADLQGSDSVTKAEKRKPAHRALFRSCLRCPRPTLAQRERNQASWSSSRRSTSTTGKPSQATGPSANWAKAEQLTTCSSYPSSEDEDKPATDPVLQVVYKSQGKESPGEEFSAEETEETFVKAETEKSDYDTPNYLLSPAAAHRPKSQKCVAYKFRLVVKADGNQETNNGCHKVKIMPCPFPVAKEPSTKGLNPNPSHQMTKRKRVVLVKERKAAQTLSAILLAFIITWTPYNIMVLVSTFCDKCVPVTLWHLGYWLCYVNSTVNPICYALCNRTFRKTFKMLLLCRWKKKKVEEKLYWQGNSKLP
The data set is described as follows: Muscarinic receptor radioligand displacement binding, M5.

Data set [9] in a line: pH adjustment of methyl atropine and benzyl atropine solutions, HPLC analysis. Type of data set: physicochemical. As to conditions: for Actual concentration (HPLC): after pH adjustment; for Initial pH: before pH adjustment.
Data set [10] is described as follows: Solubility screen in two simple vehicles, pH 7.4. As to conditions: for pH of the formulation: pH 7.4.
Data set [11] concerns muscarinic receptors. Put plainly: Binding selectivity across the muscarinic receptors. As to conditions: M1-M5.
A short description of data set [12]: Methyl atropine in lowered-pH phosphate vehicles with tonicity agents. The format is physicochemical. From the text:
Therefore, lowering the initial pH value of the vehicles was deemed necessary to: i) ensure higher solubility; and ii) reach an ophthalmically-acceptable target pH (5-8). Also, the addition of tonicity agents was needed to reach the acceptable target range of 280-320 mOsm/kg (Table 4 and Table 5).

[13] abbreviates: 0.5% Sodium Chloride in 20 mM Phosphate Buffer, pH 2.71.
[14] abbreviates: 3% Mannitol in 20 mM Phosphate Buffer, pH 4.8.
The mark [15] stands for this setting: 3.7% Mannitol in 20 mM Phosphate Buffer, pH 2.82.
Where [16] appears, read: […] Sodium Choride in 20 mM Phosphate Buffer, pH 4.8.

With `CN1[C@@H]2CC[C@H]1C[C@@H](OC(=O)C(CO)c1ccccc1)C2` (mixture of isomers) [Atropine, atropine], the side effects result in [1] is “pupillary dilation and light sensitivity”.
Take `C[N+]1(C)[C@@H]2CC[C@H]1C[C@@H](OC(=O)C(CO)c1ccccc1)C2` (stereo partly shown) [Methyl Atropine, methyl atropine]: the inhibition constant Ki – broadly, a measure of affinity in units of concentration, obtained from inhibition or displacement – in [2] was 3.4 nM; in [5], 1.2 nM; in data set [6] it was 7.8 nM; in data set [7] it was 2.4 nM; in data set [8], 2.2 nM. Moreover, the Actual Concentration in data set [3] was 1.63 mg/g; in [12] (setting [13]), 5.38 mg/g; in data set [12] (setting [14]) it was 5.62 mg/g; in [12] (setting [15]) it was 5.14 mg/g; in data set [12] (setting [16]) it was 5.14 mg/g. Also, in data set [4], the “efficacy in FDM chick model” value is “effective”. In addition, in data set [4], the “change in refractive error (goggled eye value minus ungoggled eye value)” value is recorded as “significantly decreased”. The “Actual concentration (HPLC)” value worked out at 4.61 mg/g in [9] (30 mM Phosphate Buffer, pH 7.4) and 4.89 mg/g in [9] (Phosphate Buffered Saline). Besides, the “Initial pH” value is given as 8.1 in [9] (30 mM Phosphate Buffer, pH 7.4) and 9.3 in [9] (Phosphate Buffered Saline). Moreover, the figures for the “pH of the formulation” value in data set [10] (30 mM Phosphate Buffer) and in data set [10] (Phosphate Buffered Saline) were 9.2 and 9.6, respectively. Also, in [10] (both vehicles: 30 mM phosphate buffer pH 7.4 and phosphate-buffered saline pH 7.4), the “dissolution in vehicle (in words)” value was “did not entirely dissolve”. Further, the “selectivity of binding to the muscarinic receptors” value in data set [11] is given as “non-selective binding”. The “Final pH” value was found to be 6.7 in data set [12] (setting [13]), 8.8 in [12] (setting [14]), 6.8 in data set [12] (setting [15]) and 8.0 in data set [12] (setting [16]). Moreover, the Osmolality in data set [12] (setting [13]) came out at 202.5 mOsm/kg; in data set [12] (setting [14]), 217 mOsm/kg; in data set [12] (setting [15]), 262.5 mOsm/kg; in data set [12] (setting [16]) it was 182.5 mOsm/kg.
In the case of `CN1C2CCC1CC(OC(=O)C(F)(CO)c1ccccc1)C2` (stereo not shown) [fluoro-atropine], in data set [4], the “efficacy in FDM chick model” value is “effective” and the “change in refractive error (goggled eye value minus ungoggled eye value)” value is recorded as “significantly decreased”.

The values are drawn from patent publication US12527739B2 (Alcon Inc., priority 2022, dated 2026).
